{
  "source": "paper PMC6934184",
  "about": "“Selective DNA-PKcs inhibition extends the therapeutic index of localized radiotherapy and chemotherapy” (The Journal of Clinical Investigation, 2019)",
  "biological_target": "T1, PRKCD (PKC delta) (Homo sapiens, UniProt Q05655)",
  "T1 construct": "purchased Thermo Fisher Scientific (Life Technologies) SelectScreen",
  "T1 sequence (Q05655 whole entry)": "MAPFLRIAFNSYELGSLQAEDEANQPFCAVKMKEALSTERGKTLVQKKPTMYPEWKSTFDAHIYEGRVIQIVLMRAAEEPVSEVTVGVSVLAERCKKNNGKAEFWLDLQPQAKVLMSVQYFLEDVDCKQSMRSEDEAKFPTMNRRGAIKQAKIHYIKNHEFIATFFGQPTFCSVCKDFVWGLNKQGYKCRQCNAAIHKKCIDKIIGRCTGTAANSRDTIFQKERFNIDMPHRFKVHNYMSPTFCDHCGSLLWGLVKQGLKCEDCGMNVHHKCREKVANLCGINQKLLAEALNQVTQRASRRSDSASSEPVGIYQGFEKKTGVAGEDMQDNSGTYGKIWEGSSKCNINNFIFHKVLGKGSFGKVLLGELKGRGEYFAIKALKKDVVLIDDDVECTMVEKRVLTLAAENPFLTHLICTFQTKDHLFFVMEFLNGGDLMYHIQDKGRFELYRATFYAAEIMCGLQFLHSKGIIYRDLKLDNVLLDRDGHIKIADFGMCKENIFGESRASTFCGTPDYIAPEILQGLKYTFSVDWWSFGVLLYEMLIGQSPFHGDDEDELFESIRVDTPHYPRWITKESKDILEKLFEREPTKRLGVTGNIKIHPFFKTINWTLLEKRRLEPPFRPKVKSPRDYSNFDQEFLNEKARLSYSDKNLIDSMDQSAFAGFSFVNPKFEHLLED",
  "assay": "SelectScreen Z'LYTE",
  "format": "biochemical",
  "method_in_brief": "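SelectScreen broad panel; activity (Z'LYTE, Adapta) plus binding formats. ATP: Km app for CSF1R Z'LYTE; 10 for CAMK1 Adapta. Readout = % per kinase.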",
  "data": [
    {"smiles": "CN(C(=O)CN1CCOCC1)c1ccc2sc3c(-c4cccc5c(=O)cc(N6CC7CCC(C6)O7)oc45)cccc3c2c1", "note": "[NU5455]", "values": [
      {"measurement": "inhibition at 1 µM", "value": 6.2, "unit": "%"}
    ]}
  ]
}
